From patent US20230278972A1, “SUBSTITUTED HALOALKYL SULFONANILIDE HERBICIDES” (FMC Corporation, priority 2020, published 2023)

Columns and labels:
Format in all cases: in vivo
[1] = tested on: corn (Zea mays); test: Test A1 preemergence, corn
From the text: (§1) Seeds of plant species selected from, blackgrass (Alopecurus myosuroides), corn (Zea mays), Foxtail, Giant (giant foxtail, Setaria faberi), goosegrass (Eleusine indica), kochia (Bassia scoparia), Oat, Wild (wild oat, Avena fatua), Pigweed, Palmer (palmer amaranth, palmer pigweed, Amaranthus palmeri), ragweed (common ragweed, Ambrosia artemisiifolia), Ryegrass, Italian (Italian ryegrass, Lolium multiflorum), soybean (Glycine max), and wheat (Triticum aestivum) were planted into a blend of loam soil and sand and treated preemergence with a directed soil spray using test chemicals formulated in a non-phytotoxic solvent mixture which included a surfactant. At the same time, plants selected from these crop and weed species and also galium (catchweed bedstraw, Galium aparine) and horseweed (Erigeron canadensis) were planted in pots containing the same blend of loam soil and sand and treated with postemergence applications of test chemicals formulated in the same manner. Plants ranged in height from 2 to 10 cm and were in the one- to two-leaf stage for the postemergence treatment. […] A dash (-) response means no test result.

[2] = tested on: kochia (Bassia scoparia); test: Test A1 preemergence, kochia
From the text: as §1

[3] = tested on: ragweed (common ragweed, Ambrosia artemisiifolia); test: Test A1 postemergence, ragweed; settings: for Plant response rating, Ragweed: Postemergence
From the text: as §1

[4] = tested on: soybean (Glycine max); test: Test A1 preemergence, soybean
From the text: as §1

[5] = tested on: wheat (Triticum aestivum); test: Test A1 preemergence, wheat
From the text: as §1

[6] = tested on: Oat, Wild (wild oat, Avena fatua); test: Test A1 preemergence, Oat, Wild
From the text: as §1

[7] = tested on: rice (Oryza sativa); test: Test B1 flooded paddy test, rice; settings: 250 g ai/ha, Flood, applied to paddy water, 2-leaf stage, visually evaluated after 10 to 14 days
From the text: (§2) A dash (-) response means no test result.

[8] = tested on: Pigweed, Palmer (palmer amaranth, palmer pigweed, Amaranthus palmeri); test: Test A1 preemergence, Pigweed, Palmer
From the text: as §1

[9] = tested on: ragweed (common ragweed, Ambrosia artemisiifolia); test: Test A1 preemergence, ragweed
From the text: as §1

[10] = tested on: ducksalad (Heteranthera limosa); test: Test B1 flooded paddy test, ducksalad; settings: 250 g ai/ha, Flood, applied to paddy water, 2-leaf stage, visually evaluated after 10 to 14 days
From the text: as §2

[11] = tested on: blackgrass (Alopecurus myosuroides); test: Test A1 preemergence, blackgrass
From the text: as §1

[12] = tested on: Pigweed, Palmer (palmer amaranth, palmer pigweed, Amaranthus palmeri); test: Test A1 postemergence, Pigweed, Palmer; settings: for Plant response rating, Pigweed, Palmer: Postemergence
From the text: as §1

[13] = tested on: Oat, Wild (wild oat, Avena fatua); test: Test A1 postemergence, Oat, Wild; settings: for Plant response rating, Oat, Wild: Postemergence
From the text: as §1

[14] = tested on: Ryegrass, Italian (Italian ryegrass, Lolium multiflorum); test: Test A1 postemergence, Ryegrass, Italian; settings: for Plant response rating, Ryegrass, Italian: Postemergence
From the text: as §1

[15] = tested on: wheat (Triticum aestivum); test: Test A1 postemergence, wheat; settings: for Plant response rating, Wheat: Postemergence
From the text: as §1

[16] = tested on: soybean (Glycine max); test: Test A1 postemergence, soybean; settings: for Plant response rating, Soybean: Postemergence
From the text: as §1

[17] = tested on: Ryegrass, Italian (Italian ryegrass, Lolium multiflorum); test: Test A1 preemergence, Ryegrass, Italian
From the text: as §1

[18] = tested on: galium (catchweed bedstraw, Galium aparine); test: Test A1 postemergence, galium; settings: for Plant response rating, Galium: Postemergence
From the text: as §1

[19] = tested on: horseweed (Erigeron canadensis); test: Test A1 postemergence, horseweed; settings: for Plant response rating, Horseweed: Postemergence
From the text: as §1

[20] = tested on: goosegrass (Eleusine indica); test: Test A1 postemergence, goosegrass; settings: for Plant response rating, Goosegrass: Postemergence
From the text: as §1

[21] = tested on: kochia (Bassia scoparia); test: Test A1 postemergence, kochia; settings: for Plant response rating, Kochia: Postemergence
From the text: as §1

[22] = tested on: Foxtail, Giant (giant foxtail, Setaria faberi); test: Test A1 postemergence, Foxtail, Giant; settings: for Plant response rating, Foxtail, Giant: Postemergence
From the text: as §1

[23] = tested on: barnyardgrass (Echinochloa crus-galli); test: Test B1 flooded paddy test, barnyardgrass; settings: 250 g ai/ha, Flood, applied to paddy water, 2-leaf stage, visually evaluated after 10 to 14 days
From the text: as §2

[24] = tested on: goosegrass (Eleusine indica); test: Test A1 preemergence, goosegrass
From the text: as §1

[25] = tested on: blackgrass (Alopecurus myosuroides); test: Test A1 postemergence, blackgrass; settings: 0 to 100 scale (0 no effect, 100 complete control); for Plant response rating, Blackgrass: Postemergence
From the text: as §1

[26] = tested on: Foxtail, Giant (giant foxtail, Setaria faberi); test: Test A1 preemergence, Foxtail, Giant
From the text: as §1

[27] = tested on: corn (Zea mays); test: Test A1 postemergence, corn; settings: for Plant response rating, Corn: Postemergence
From the text: as §1

[28] = 31 g ai/ha, 0 to 100 scale (0 no effect, 100 complete control)
[29] = 125 g ai/ha, 0 to 100 scale, 0 no effect, 100 complete control
[30] = 125 g ai/ha, 0 to 100 scale (0 no effect, 100 complete control)
[31] = 31 g ai/ha, postemergence, 0 to 100 scale (0 no effect, 100 complete control)
[32] = 125 g ai/ha, 0 to 100 scale (0 no effect, 100 complete control), 10 days
[33] = 31 g ai/ha, 0 to 100 scale (0 no effect, 100 complete control), 10 days

SMILES: Cc1cc(C)c(N2Cc3cccc(C)c3C2=O)cc1NS(=O)(=O)Cl [Compound 408]
- Plant response rating, Corn [1, 28]: 40
- Plant response rating, Corn [1, 29]: 90
- Plant response rating, Kochia [2, 28]: 0
- Plant response rating, Kochia [2, 30]: 70
- Ragweed plant response rating [3, 31]: 40
- Plant response rating, Ragweed [3, 32]: 90
- Plant response rating, Soybean [4, 30]: 50
- Plant response rating, Wheat [5, 30]: 100
- Plant response rating, Oat, Wild [6, 30]: 100
- Plant response rating, Rice (0 to 100 scale, 0 is no effect, 100 is complete control) [7]: 65
- Plant response rating, Pigweed, Palmer [8, 30]: 60
- Plant response rating, Ragweed [9, 30]: 50
- Plant response rating, Ducksalad (0 to 100 scale, 0 is no effect, 100 is complete control) [10]: 75
- Plant response rating, Blackgrass [11, 28]: 90
- Plant response rating, Blackgrass [11, 29]: 100
- Pigweed, Palmer plant response rating [12, 31]: 30
- Plant response rating, Pigweed, Palmer [12, 32]: 50
- Oat, Wild plant response rating [13, 31]: 70
- Plant response rating, Oat, Wild [13, 32]: 70
- Ryegrass, Italian plant response rating [14, 31]: 70
- Plant response rating, Ryegrass, Italian [14, 32]: 80
- Wheat plant response rating [15, 31]: 60
- Plant response rating, Wheat [15, 32]: 70
- Soybean plant response rating [16, 31]: 40
- Plant response rating, Soybean [16, 32]: 50
- Plant response rating, Ryegrass, Italian [17, 30]: 100
- Galium plant response rating [18, 31]: 90
- Plant response rating, Galium [18, 32]: 100
- Horseweed plant response rating [19, 31]: 20
- Plant response rating, Horseweed [19, 32]: 70
- Goosegrass plant response rating [20, 31]: 90
- Plant response rating, Goosegrass [20, 32]: 90
- Kochia plant response rating [21, 31]: 60
- Plant response rating, Kochia [21, 32]: 60
- Foxtail, Giant plant response rating [22, 31]: 90
- Plant response rating, Foxtail, Giant [22, 32]: 90
- Plant response rating, Barnyardgrass (0 to 100 scale, 0 is no effect, 100 is complete control) [23]: 98
- Plant response rating, Goosegrass [24, 28]: 100
- Plant response rating, Goosegrass [24, 30]: 100
- Blackgrass plant response rating ([25]; 31 g ai/ha, postemergence): 80
- Plant response rating, Blackgrass ([25]; 125 g ai/ha, 10 days): 90
- Plant response rating, Foxtail, Giant [26, 28]: 100
- Plant response rating, Foxtail, Giant [26, 30]: 100
- Corn plant response rating [27, 31]: 80
- Plant response rating, Corn [27, 32]: 80

SMILES: Cc1c(NS(=O)(=O)C(F)(F)F)cc(C(=O)N2CCC(F)CC2)c(C)c1C [Compound 358]
- Plant response rating, Corn [1, 28]: 0
- Plant response rating, Corn [1, 29]: 50
- Plant response rating, Kochia [2, 28]: 20
- Plant response rating, Kochia [2, 29]: 30
- Plant response rating, Ragweed [3, 33]: 80
- Plant response rating, Ragweed ([3]; 125 g ai/ha, 0 to 100 scale): 80
- Plant response rating, Soybean [4, 28]: 50
- Plant response rating, Soybean [4, 29]: 70
- Plant response rating, Wheat [5, 28]: 0
- Plant response rating, Wheat [5, 29]: 30
- Plant response rating, Oat, Wild [6, 28]: 0
- Plant response rating, Oat, Wild [6, 29]: 10
- Plant response rating, Rice (0 to 100 scale, 0 is no effect, 100 is complete control) [7]: 10
- Plant response rating, Pigweed, Palmer [8, 28]: 90
- Plant response rating, Pigweed, Palmer [8, 29]: 90
- Plant response rating, Ragweed [9, 28]: 40
- Plant response rating, Ragweed [9, 29]: 80
- Plant response rating, Ducksalad (0 to 100 scale, 0 is no effect, 100 is complete control) [10]: 0
- Plant response rating, Blackgrass [11, 28]: 0
- Plant response rating, Blackgrass [11, 29]: 10
- Plant response rating, Pigweed, Palmer [12, 33]: 0
- Plant response rating, Pigweed, Palmer ([12]; 125 g ai/ha, 0 to 100 scale): 40
- Plant response rating, Oat, Wild [13, 33]: 0
- Plant response rating, Oat, Wild ([13]; 125 g ai/ha, 0 to 100 scale): 0
- Plant response rating, Ryegrass, Italian [14, 33]: 20
- Plant response rating, Ryegrass, Italian ([14]; 125 g ai/ha, 0 to 100 scale): 20
- Plant response rating, Wheat [15, 33]: 0
- Plant response rating, Wheat ([15]; 125 g ai/ha, 0 to 100 scale): 0
- Plant response rating, Soybean [16, 33]: 50
- Plant response rating, Soybean ([16]; 125 g ai/ha, 0 to 100 scale): 70
- Plant response rating, Ryegrass, Italian [17, 28]: 0
- Plant response rating, Ryegrass, Italian [17, 29]: 30
- Plant response rating, Galium [18, 33]: 70
- Plant response rating, Galium ([18]; 125 g ai/ha, 0 to 100 scale): 100
- Plant response rating, Horseweed [19, 33]: 60
- Plant response rating, Horseweed ([19]; 125 g ai/ha, 0 to 100 scale): 70
- Plant response rating, Goosegrass [20, 33]: 0
- Plant response rating, Goosegrass ([20]; 125 g ai/ha, 0 to 100 scale): 80
- Plant response rating, Kochia [21, 33]: 0
- Plant response rating, Kochia ([21]; 125 g ai/ha, 0 to 100 scale): 70
- Plant response rating, Foxtail, Giant [22, 33]: 0
- Plant response rating, Foxtail, Giant ([22]; 125 g ai/ha, 0 to 100 scale): 40
- Plant response rating, Barnyardgrass (0 to 100 scale, 0 is no effect, 100 is complete control) [23]: 50
- Plant response rating, Goosegrass [24, 28]: 30
- Plant response rating, Goosegrass [24, 29]: 100
- Plant response rating, Blackgrass ([25]; 31 g ai/ha, 10 days): 0
- Plant response rating, Blackgrass ([25]; 125 g ai/ha): 0
- Plant response rating, Foxtail, Giant [26, 28]: 80
- Plant response rating, Foxtail, Giant [26, 29]: 100
- Plant response rating, Corn [27, 33]: 0
- Plant response rating, Corn ([27]; 125 g ai/ha, 0 to 100 scale): 0
